The record followed here is patent US9957263B2, “Bromodomain inhibitors” (AbbVie Inc., priority 2013, dated 2018).

One test has as its target BRD4 (BDII_E352-M457) (Homo sapiens (Human), UniProt O60885). In words: TR-FRET bromodomain binding assay, BRD4 second bromodomain. To be noted: His-tagged BD2, Alexa647-labeled probe 30 nM. How it is done:
(§1) A time-resolved fluorescence resonance energy transfer (TR-FRET) assay was used to determine the affinities of compounds of the Examples listed in Table 1 for each bromodomain of BRD4. His-tagged first (BD1: amino acids K57-E168) and second (BD2: amino acids E352-E168) bromodomains of BRD4 were expressed and purified. An Alexa647-labeled BET-inhibitor was used as the fluorescent probe in the assay.
(§2) Compound dilution series were prepared in DMSO via a 3-fold serial dilution from 2.5 mM to 42 nM. Compounds were then diluted 6:100 in assay buffer (20 mM Sodium Phosphate, pH 6.0, 50 mM NaCl, 1 mM Ethylenediaminetetraacetic acid disodium salt dihydrate, 0.01% Triton X-100, 1 mM DL-Dithiothreitol) to yield 3× working solutions. Six microliters (μL) of the working solution was then transferred to white, low-volume assay plates (Costar #3673). A 1.5× assay mixture containing His-tagged bromodomain, Europium-conjugated anti-His antibody (Invitrogen PV5596) and the Alexa-647-conjugated probe molecule was also prepared. Twelve μL of this solution were added to the assay plate to reach a final volume of 18 μL. The final concentration of 1× assay buffer contains 2% DMSO, 50 μM-0.85 nM compound, 8 nM His-tagged bromodomain, 1 nM Europium-conjugated anti-His-tag antibody and 100 nM or 30 nM probe (for BDI or BDII, respectively). After a one-hour incubation at room temperature, TR-FRET ratios were determined using an Envision multilabel plate reader (Ex 340, Em […]).
(§3) TR-FRET data were normalized to the means of 24 no-compound controls (“high”) and 8 controls containing 1 μM un-labeled probe (“low”). Percent inhibition was plotted as a function of compound concentration and the data were fit with the 4 parameter logistic equation to obtain IC50s. Inhibition constants (Ki) were calculated from the IC50s, probe Kd and probe concentration. Typical Z′ values were between 0.65 and 0.75. The minimum significant ratio was determined to evaluate assay reproducibility (Eastwood et al., (2006) J Biomol Screen, 11: 253-261). The MSR was determined to be 2.03 for BDI and 1.93 for BDII, and a moving MSR (last six run MSR overtime) for both BDI and BDII was typically <3.
For orientation: In TR-FRET formats the signal depends on donor and acceptor labels being close together.

In another test the target is BRD4 (BDI_K57-E168) (Homo sapiens (Human), UniProt O60885). In words: TR-FRET bromodomain binding assay, BRD4 first bromodomain. To be noted: His-tagged BD1, Alexa647-labeled probe 100 nM. How it is done: as §1, §2, §3

The pKi is the negative decadic logarithm of the Ki, by convention in mol/L.

pKi: −log10 of the molar value.

As for `Cn1cc(-c2cc(S(C)(=O)=O)ccc2Oc2ccc(F)cc2F)c2cc(CN3CCN(c4nccs4)CC3)[nH]c2c1=O` [Example 114, 4-[2-(2,4-difluorophenoxy)-5-(methylsulfonyl)phenyl]-6-methyl-2-{[4-(1,3-thiazol-2-yl)piperazin-1-yl]methyl}-1,6-dihydro-7H-pyrrolo[2,3-c]pyridin-7-one], the pKi on BRD4 (BDII_E352-M457) was 7.09; on BRD4 (BDI_K57-E168), 8.16.

In the case of `CCS(=O)(=O)Nc1cc(-c2cn(C)c(=O)c3[nH]ccc23)c(Oc2ccc(F)cc2F)cc1CN1CCOCC1` [Example 4, N-[4-(2,4-difluorophenoxy)-5-(6-methyl-7-oxo-6,7-dihydro-1H-pyrrolo[2,3-c]pyridin-4-yl)-2-(morpholin-4-ylmethyl)phenyl]ethanesulfonamide], the negative-log Ki (pKi) on BRD4 (BDII_E352-M457) is 8.77; at BRD4 (BDI_K57-E168), 7.96.

For the compound `COCCN[C@H]1CC[C@H](Nc2ccc(S(C)(=O)=O)cc2-c2cn(C)c(=O)c3[nH]ccc23)CC1` [Example 111, 4-[2-({trans-4-[(2-methoxyethyl)amino]cyclohexyl}amino)-5-(methylsulfonyl)phenyl]-6-methyl-1,6-dihydro-7H-pyrrolo[2,3-c]pyridin-7-one], the pKi was 7.92 at BRD4 (BDII_E352-M457) and 8.34 on BRD4 (BDI_K57-E168).

Turning to `CCNC(=O)c1cc2c(-c3cc(S(=O)(=O)CC)ccc3Oc3c(C)cccc3NCC3CC3)cn(C)c(=O)c2[nH]1` [Example 119, 4-[2-{2-[(cyclopropylmethyl)amino]-6-methylphenoxy}-5-(ethylsulfonyl)phenyl]-N-ethyl-6-methyl-7-oxo-6,7-dihydro-1H-pyrrolo[2,3-c]pyridine-2-carboxamide], the pKi on BRD4 (BDII_E352-M457) was 8.17; on BRD4 (BDI_K57-E168) it was 5.82.

Take `CCS(=O)(=O)c1ccc(Oc2ccc(Cl)cc2C#CCN2CCOCC2)c(-c2cn(C)c(=O)c3[nH]ccc23)c1` [Example 82, 4-[2-{4-chloro-2-[3-(morpholin-4-yl)prop-1-yn-1-yl]phenoxy}-5-(ethylsulfonyl)phenyl]-6-methyl-1,6-dihydro-7H-pyrrolo[2,3-c]pyridin-7-one]: the negative-log Ki (pKi) was 8.07 at BRD4 (BDII_E352-M457) and 7.41 on BRD4 (BDI_K57-E168).

Consider `Cn1cc(-c2cc(S(C)(=O)=O)ccc2Oc2cccc(C(=O)N3CCN(CCO)CC3)c2)c2cc[nH]c2c1=O` [Example 26, 4-[2-(3-{[4-(2-hydroxyethyl)piperazin-1-yl]carbonyl}phenoxy)-5-(methylsulfonyl)phenyl]-6-methyl-1,6-dihydro-7H-pyrrolo[2,3-c]pyridin-7-one], for which the results for the pKi at BRD4 (BDII_E352-M457) and on BRD4 (BDI_K57-E168) were 7.82 and 7.57, respectively.

Consider `CCNC(=O)c1cc2c(-c3cc(S(=O)(=O)CC)ccc3Oc3c(C)cccc3Cn3ccccc3=O)cn(C)c(=O)c2[nH]1` [Example 158, N-ethyl-4-[5-(ethylsulfonyl)-2-{2-methyl-6-[(2-oxopyridin-1(2H)-yl)methyl]phenoxy}phenyl]-6-methyl-7-oxo-6,7-dihydro-1H-pyrrolo[2,3-c]pyridine-2-carboxamide], for which the figures for the negative-log Ki (pKi) at BRD4 (BDII_E352-M457) and on BRD4 (BDI_K57-E168) were 7.55 and 6.05, respectively.

On to `CC(=O)Nc1ccc(CN[C@H]2CC[C@H](Nc3ccc(S(C)(=O)=O)cc3-c3cn(C)c(=O)c4[nH]ccc34)CC2)cc1` [Example 108, N-(4-{[(trans-4-{[2-(6-methyl-7-oxo-6,7-dihydro-1H-pyrrolo[2,3-c]pyridin-4-yl)-4-(methylsulfonyl)phenyl]amino}cyclohexyl)amino]methyl}phenyl)acetamide], for which the negative-log Ki (pKi) on BRD4 (BDII_E352-M457) was 8.25; on BRD4 (BDI_K57-E168), 8.47.

On to `Cn1cc(-c2cc(S(C)(=O)=O)ccc2Oc2cccc(NCC3CCOC3)c2)c2cc[nH]c2c1=O` (stereo not shown) [Example 77, 6-methyl-4-[5-(methylsulfonyl)-2-{3-[(tetrahydrofuran-3-ylmethyl)amino]phenoxy}phenyl]-1,6-dihydro-7H-pyrrolo[2,3-c]pyridin-7-one], for which the negative logarithm of the Ki (pKi) at BRD4 (BDII_E352-M457) is 8.55; on BRD4 (BDI_K57-E168), 7.96.

As to `Cc1nnc(C)n1C1CCN(Cc2cc3c(-c4cc(S(C)(=O)=O)ccc4Oc4ccc(F)cc4F)cn(C)c(=O)c3[nH]2)CC1` [Example 128, 4-[2-(2,4-difluorophenoxy)-5-(methylsulfonyl)phenyl]-2-{[4-(3,5-dimethyl-4H-1,2,4-triazol-4-yl)piperidin-1-yl]methyl}-6-methyl-1,6-dihydro-7H-pyrrolo[2,3-c]pyridin-7-one], the pKi at BRD4 (BDII_E352-M457) was 6.74; at BRD4 (BDI_K57-E168) it was 7.32.

Take `CCS(=O)(=O)c1ccc(OCC2CC2(F)F)c(-c2cn(C)c(=O)c3[nH]c(CN4CCN(c5cccnc5)CC4)cc23)c1` (stereo not shown) [Example 20, 4-{2-[(2,2-difluorocyclopropyl)methoxy]-5-(ethylsulfonyl)phenyl}-6-methyl-2-{[4-(pyridin-3-yl)piperazin-1-yl]methyl}-1,6-dihydro-7H-pyrrolo[2,3-c]pyridin-7-one]: the negative-log Ki (pKi) on BRD4 (BDII_E352-M457) is 7.32; on BRD4 (BDI_K57-E168), 8.31.

In the case of `CCNC(=O)c1cc2c(-c3cc(S(=O)(=O)CC)ccc3Oc3c(C)cccc3CCc3ccccc3)cn(C)c(=O)c2[nH]1` [Example 148, N-ethyl-4-{5-(ethylsulfonyl)-2-[2-methyl-6-(2-phenylethyl)phenoxy]phenyl}-6-methyl-7-oxo-6,7-dihydro-1H-pyrrolo[2,3-c]pyridine-2-carboxamide], the pKi is 8.15 on BRD4 (BDII_E352-M457) and 5.24 at BRD4 (BDI_K57-E168).

With `Cn1cc(-c2cc(S(C)(=O)=O)ccc2Oc2cccc(NS(=O)(=O)c3ccc(F)cc3Cl)c2)c2cc[nH]c2c1=O` [Example 58, 2-chloro-4-fluoro-N-{3-[2-(6-methyl-7-oxo-6,7-dihydro-1H-pyrrolo[2,3-c]pyridin-4-yl)-4-(methylsulfonyl)phenoxy]phenyl}benzenesulfonamide], the negative logarithm of the Ki (pKi) was 8.62 at BRD4 (BDII_E352-M457) and 8.33 at BRD4 (BDI_K57-E168).

For the compound `Cn1cc(-c2cc(S(C)(=O)=O)ccc2Oc2cccc(NCc3cccc(C#N)c3)c2)c2cc[nH]c2c1=O` [Example 60, 3-[({3-[2-(6-methyl-7-oxo-6,7-dihydro-1H-pyrrolo[2,3-c]pyridin-4-yl)-4-(methylsulfonyl)phenoxy]phenyl}amino)methyl]benzonitrile], the negative-log Ki (pKi) is 8.70 on BRD4 (BDII_E352-M457) and 8.10 on BRD4 (BDI_K57-E168).

Consider `Cn1cc(-c2cc(S(C)(=O)=O)ccc2Oc2ccc(F)cc2F)c2cc(CN3CCN(C4CCOCC4)CC3)[nH]c2c1=O` [Example 116, 4-[2-(2,4-difluorophenoxy)-5-(methylsulfonyl)phenyl]-6-methyl-2-{[4-(tetrahydro-2H-pyran-4-yl)piperazin-1-yl]methyl}-1,6-dihydro-7H-pyrrolo[2,3-c]pyridin-7-one], for which the pKi on BRD4 (BDII_E352-M457) is 7.01; at BRD4 (BDI_K57-E168) it was 8.48.

Regarding `CSCC(=O)N1CCC(Nc2ccc(S(C)(=O)=O)cc2-c2cn(C)c(=O)c3[nH]ccc23)CC1` [Example 91, 6-methyl-4-[2-({1-[(methylsulfanyl)acetyl]piperidin-4-yl}amino)-5-(methylsulfonyl)phenyl]-1,6-dihydro-7H-pyrrolo[2,3-c]pyridin-7-one], the pKi at BRD4 (BDII_E352-M457) is 8.12; at BRD4 (BDI_K57-E168) it was 8.30.

For `Cn1cc(-c2cc(S(C)(=O)=O)ccc2Oc2cccc(NS(=O)(=O)c3ccccc3C#N)c2)c2cc[nH]c2c1=O` [Example 55, 2-cyano-N-{3-[2-(6-methyl-7-oxo-6,7-dihydro-1H-pyrrolo[2,3-c]pyridin-4-yl)-4-(methylsulfonyl)phenoxy]phenyl}benzenesulfonamide], the pKi at BRD4 (BDII_E352-M457) is 8.55; at BRD4 (BDI_K57-E168) it was 8.16.
